From ChEMBL document CHEMBL1201862, “PubChem BioAssay data set” (2004)
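A five-concentration, 48-hour dose response in 96-well plates underlies each endpoint, interpolated linearly between surrounding concentrations. Abbreviation: GI50, concentration required for 50% inhibition of growth.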 Calls of active or inactive are those of the source. Rule as the data show it: active = GI50 up to about 1.1 µM and inactive = higher.

Assays:
Assay in all cases: NCI tumour cell line growth inhibition, 48 h
DLD-1 = test system: DLD-1
XF498 = test system: XF498
KM-20L2 = test system: KM-20L2
DMS-273 = test system: DMS-273
HOP-18 = test system: HOP-18
SNB-78 = test system: SNB-78
LXFL 529 = test system: LXFL 529
DMS-114 = test system: DMS-114
RXF 631 = test system: RXF 631

Structure (SMILES) | GI50 (DLD-1) | GI50 (XF498) | GI50 (KM-20L2) | GI50 (DMS-273) | GI50 (HOP-18) | GI50 (SNB-78) | GI50 (LXFL 529) | GI50 (DMS-114) | GI50 (RXF 631)
COC(=O)C1=C(c2cc(OC)c(OC)c(OC)c2)OC(c2cc(OC)c(OC)c(OC)c2)C1 (centres undefined) | 21.9 µM (inactive) | 24.4 µM (inactive) | 22.5 µM (inactive) | 22.5 µM (inactive) | 19.5 µM (inactive) | 51.8 µM (inactive) | 22.4 µM (inactive) | 30.7 µM (inactive) | –
C[C@]12CC[C@H](O)CC1=CC[C@@H]1C2CC[C@]2(C)C(=O)NC(=O)CC12 (some centres undefined) | 44.6 µM (inactive) | > 100 µM (inactive) | > 100 µM (inactive) | 56.9 µM (inactive) | > 100 µM (inactive) | > 100 µM (inactive) | 74.3 µM (inactive) | > 100 µM (inactive) | 76.7 µM (inactive)
CCOC(=O)CCC(=O)C1c2cccc(O)c2C(=O)c2c(O)cc(C)cc21 (centres undefined) | 1.21 µM (inactive) | 0.211 µM (active) | 1.83 µM (inactive) | 0.785 µM (active) | 0.515 µM (active) | 0.542 µM (active) | 0.643 µM (active) | 0.296 µM (active) | 0.771 µM (active)
COc1ccc(CCNCc2cccc(OC)c2OC)cc1OC | > 100 µM (inactive) | > 100 µM (inactive) | > 100 µM (inactive) | > 100 µM (inactive) | – | > 100 µM (inactive) | > 100 µM (inactive) | > 100 µM (inactive) | > 100 µM (inactive)
Cc1ccc(/C=N\NC2c3cc(Cl)ccc3Nc3nc(O)nc(C)c32)cc1 (centres undefined) | > 100 µM (inactive) | > 100 µM (inactive) | > 100 µM (inactive) | 91.4 µM (inactive) | – | > 100 µM (inactive) | > 100 µM (inactive) | > 100 µM (inactive) | –
[O-][Cl+3]([O-])([O-])O.c1ccc(/N=c2\nc(N3CCOCC3)ss2)cc1 | 14.6 µM (inactive) | 17.9 µM (inactive) | 16.5 µM (inactive) | 17.4 µM (inactive) | > 100 µM (inactive) | 22 µM (inactive) | 12.2 µM (inactive) | 14.6 µM (inactive) | 17.4 µM (inactive)
Cc1cccc2c1c1ccc3c(c1n2C)C(=O)C=CC3=O | 2.28 µM (inactive) | – | 16.2 µM (inactive) | 3.11 µM (inactive) | 10 µM (inactive) | 16.2 µM (inactive) | 2.01 µM (inactive) | 6.35 µM (inactive) | 6.79 µM (inactive)
CC1COC(C)(C)P(=O)(c2ccccc2)C1 (centres undefined) | > 100 µM (inactive) | > 100 µM (inactive) | > 100 µM (inactive) | > 100 µM (inactive) | > 100 µM (inactive) | > 100 µM (inactive) | > 100 µM (inactive) | > 100 µM (inactive) | –
C=C(c1ccccc1)[C@@]1(O)CCCC[C@H]1NC(c1ccccc1)c1ccccc1 | 14.6 µM (inactive) | – | 13.8 µM (inactive) | 13.1 µM (inactive) | 19.9 µM (inactive) | 19.7 µM (inactive) | 11.1 µM (inactive) | 9.64 µM (inactive) | –
CC1(C)C=C(N2CCN(C3=CC(C)(C)NC(C)(C)C3)CC2)CC(C)(C)N1 | > 100 µM (inactive) | > 100 µM (inactive) | > 100 µM (inactive) | > 100 µM (inactive) | > 100 µM (inactive) | > 100 µM (inactive) | > 100 µM (inactive) | > 100 µM (inactive) | –
CC(CC[C@@H](C)C1CCC2[C@@H]3CC(O)C4CC(O)[C@@H](O)C[C@]4(C)C3CC[C@@]21C)C(C)(C)C (some centres undefined) | > 100 µM (inactive) | > 100 µM (inactive) | > 100 µM (inactive) | > 100 µM (inactive) | > 100 µM (inactive) | > 100 µM (inactive) | > 100 µM (inactive) | > 100 µM (inactive) | –
CC(=O)OCc1c2ccccc2c(C)c2c1cc(F)c1ccccc12 | 14.8 µM (inactive) | 16.6 µM (inactive) | 28.8 µM (inactive) | 10.4 µM (inactive) | 24.6 µM (inactive) | 14.3 µM (inactive) | 29.6 µM (inactive) | 31.5 µM (inactive) | 25.8 µM (inactive)
CCOC(=O)/C(=C\c1ccc(OCc2ccccc2)c(OC)c1)C(=O)c1ccccc1 | – | 18.1 µM (inactive) | 19.5 µM (inactive) | – | – | 31.3 µM (inactive) | – | 19.7 µM (inactive) | –
O=C1OC(Cc2ccccc2)(N2CCCC2=O)C1c1ccccc1 (centres undefined) | 55.3 µM (inactive) | 20.3 µM (inactive) | > 100 µM (inactive) | – | – | > 100 µM (inactive) | 78.3 µM (inactive) | 23.7 µM (inactive) | –
COc1cc(/C=C2\[C@@H]3NC(Cc4c(OC)c(C)c(OC)c(OC)c43)C(=O)N2Cc2ccccc2)c(OC)c(C)c1OC | 45.4 µM (inactive) | – | 37.8 µM (inactive) | 27.9 µM (inactive) | 43.8 µM (inactive) | – | 37.5 µM (inactive) | 29.8 µM (inactive) | 53.7 µM (inactive)
COc1c(CC=C(C)C)c(O)c(C(CC(C)C)c2c(O)c(CC=C(C)C)c(O)c(C(C)=O)c2O)c(O)c1C(C)=O (centres undefined) | 0.38 µM (active) | 0.596 µM (active) | – | 0.333 µM (active) | 0.551 µM (active) | 1.7 µM (inactive) | – | 0.19 µM (active) | 0.425 µM (active)
CC(=O)C(CN(C(C)C)C(C)C)C(c1ccccc1)c1c(O)c2ccccc2oc1=O (centres undefined) | > 100 µM (inactive) | – | > 100 µM (inactive) | > 100 µM (inactive) | > 100 µM (inactive) | 97.1 µM (inactive) | > 100 µM (inactive) | > 100 µM (inactive) | > 100 µM (inactive)
Cc1ccc(S(=O)OC23CC4CC(CC(C4)C2)C3)cc1 (centres undefined) | > 100 µM (inactive) | > 100 µM (inactive) | > 100 µM (inactive) | > 100 µM (inactive) | > 100 µM (inactive) | > 100 µM (inactive) | > 100 µM (inactive) | 78.5 µM (inactive) | 72.8 µM (inactive)
COc1ccc(C2=C(Cl)c3cc(OC)c(OC)cc3C2)cc1OC | > 100 µM (inactive) | > 100 µM (inactive) | > 100 µM (inactive) | > 100 µM (inactive) | > 100 µM (inactive) | > 100 µM (inactive) | > 100 µM (inactive) | > 100 µM (inactive) | –
CC(=O)N1CCN(c2ccc(OCC3COC(Cn4ccnc4)(c4ccc(Cl)cc4Cl)O3)cc2)CC1 (centres undefined) [KETOCONAZOLE] | 33 µM (inactive) | – | 32.7 µM (inactive) | 20.5 µM (inactive) | > 100 µM (inactive) | – | 26.4 µM (inactive) | 16 µM (inactive) | –
COc1ccc(Cn2c(C)nc3c2C(=O)c2ccccc2C3=O)cc1 | 4.67 µM (inactive) | 11.7 µM (inactive) | 11.6 µM (inactive) | 3.32 µM (inactive) | – | 16.1 µM (inactive) | 4.31 µM (inactive) | – | –
